Test [1] relates to wild type PAO1, PAO1ΔpslA and PAO1ΔpslA complemented with pslA. As to the kind of experiment: OPK assay with PAO1 pslA mutant strains. The test is classed as cell-based, Pseudomonas aeruginosa. Particulars: FIG. 3F-G. The method, then: (§1) This example describes the evaluation of prioritized human IgG1 antibodies to promote OPK of P. aeruginosa. […] OPK assays were performed as described in (DiGiandomenico, A., et al., Infect Immun 72, 7012-7021 (2004)), with modifications. Briefly, assays were performed in 96-well plates using 0.025 ml of each OPK component; P. aeruginosa strains; diluted baby rabbit serum; differentiated HL-60 cells; and monoclonal antibody. In some OPK assays, luminescent P. aeruginosa strains, which were constructed as described (Choi, K. H., et al., Nat Methods 2, 443-448 (2005)), were used. Luminescent OPK assays were performed as described above but with determination of relative luciferase units (RLUs) using a Perkin Elmer ENVISION Multilabel plate reader (Perkin Elmer).
This example describes identification of the target of anti-P. aeruginosa antibodies derived from phenotypic screening. Target analysis was performed to test whether the serotype independent antibodies targeted protein or carbohydrate antigens. […] Isogenic mutants were constructed in genes responsible for 0-antigen, alginate, and LPS core biosynthesis; wbpL (O-antigen-deficient); wbpL/algD (O-antigen and alginate deficient); rmlC (O-antigen-deficient and truncated outer core); and galU (O-antigen-deficient and truncated inner core). […]

Test [2] relates to luminescent P. aeruginosa serogroup 05 strain (PAO1.lux). Nature of the test: Opsonophagocytic killing (OPK) assay, PAO1.lux. The test is classed as cell-based, Pseudomonas aeruginosa. The method, then: as §1
In test [3] the test system is P. aeruginosa strains (PAO1, 33356, 6294, 6077, 6206, PA103A). Nature of the test: Acute pneumonia model in mice, survival. The test is classed as in vivo, Pseudomonas aeruginosa. The settings on record: for protection from challenge: 45 and 15 mg/kg; for survival compared to controls: 45, 15, 5 mg/kg 24 hours before infection. The method, then:
Antibodies or PBS were administered 24 hours before infection in each model. P. aeruginosa acute pneumonia, keratitis, and thermal injury infection models were performed as described (DiGiandomenico, A., et al., Proc Natl Acad Sci USA 104, 4624-4629 (2007)), with modifications. In the acute pneumonia model, BALB/c mice (The Jackson Laboratory) were infected with P. aeruginosa strains suspended in a 0.05 ml inoculum. In the thermal injury model, CF-1 mice (Charles River) received a 10% total body surface area burn with a metal brand heated to 92° C. for 10 seconds. Animals were infected subcutaneously with P. aeruginosa strain 6077 at the indicated dose. For organ burden experiments, acute pneumonia was induced in mice followed by harvesting of lungs, spleens, and kidneys 24 hours post-infection for determination of CFU.
The in vivo effect of administration of an anti-PcrV antibodies was studied in mice using an acute pneumonia model. Groups of mice were treated with either increasing concentrations of the V2L2 antibody, a positive control anti-PcrV antibody (mAb166), or a negative control (R347), as shown in FIG. 13 (A-B). Groups of mice were also treated with either increasing concentrations of the V2L2 antibody, the PcrV antibody PcrV-02, or a negative control (R347), as shown in FIG. 13 (C-D). Twenty-four hours after treatment, all mice were infected with 5×10^7 CFU (C) Pseudomonas aeruginosa 6294 (06) or (D) PA103A (O11).
Groups of mice were treated with either increasing concentrations of the 11A6, 3G5 or V2L7, the same concentrations of 29D2, 1F3, 1E6, V2L2, LE10, SH3, 4A8, 2H3, or 21F1, increasing concentrations of the 29D2, increasing concentrations of the V2L2, the PcrV antibody PcrV-02, or a negative control (R347), as shown in FIG. 13 (E-H). Mice were injected intraperitoneally (IP) with mAbs 24 hours prior to intranasal infection with Pseudomonas strain 6077 (1×10^6 CFU/animal).

Test [4] has as its system P. aeruginosa strain 6077 (O11-cytotoxic). Nature of the test: Corneal infection (ocular keratitis) model in mice. The test is classed as in vivo, Pseudomonas aeruginosa.

In the case of “Cam-003: anti-Psl human IgG1 monoclonal antibody; VH SEQ ID NO:1, VL SEQ ID NO:2”, in test [1], the “opsonophagocytic killing of Psl-producing vs Psl-deficient strains” value is reported as “only mediates killing of strains capable of producing Psl”. Also, in test [2] (FIG. 9A, unit inferred), the OPK EC50 is 0.06 µg/mL. For the same substance, the “OPK activity (killing of PAO1.lux)” value in test [2] (purified human IgG1 mAbs from phage panning, FIG. 2A) is “superior OPK activity”. Moreover, the “survival vs. R347, Log-rank test P” value was 0.0001 in test [3] (6077 1×10^6 CFU, 5 mg/kg, FIG. 6D); 0.0212 in test [3] (6294 7×10^6 CFU, 5 mg/kg, FIG. 6C); 0.0019 in test [3] (6294 7×10^6 CFU, 15 mg/kg, FIG. 6C); 0.0007 in test [3] (6294 7×10^6 CFU, 45 mg/kg, FIG. 6C); 0.0373 in test [3] (33356 3×10^7 CFU, 5 mg/kg, FIG. 6B); 0.0012 in test [3] (33356 3×10^7 CFU, 15 mg/kg, FIG. 6B). Besides, the “survival vs. R347, Log-rank test P” value amounted to 0.0012 in test [3] (33356 3×10^7 CFU, 45 mg/kg, FIG. 6B); 0.0033 in test [3] (PAO1 1.6×10^7 CFU, 5 mg/kg, FIG. 6A); 0.0003 in test [3] (PAO1 1.6×10^7 CFU, 15 mg/kg, FIG. 6A). Further, the protection from challenge result in test [3] (cytotoxic strain 6077, FIG. 6D) was “complete protection”; in test [3] (strain 33356, FIG. 6B), “complete protection”. Also, the survival in test [3] (strain 6077, 5 mg/kg, FIG. 6D) is recorded as 90%; in test [3] (strain 33356, 5 mg/kg, FIG. 6B) it was 80%. Besides, the “survival compared to controls” value in test [3] (strain 6294, FIG. 6C) is given as “significant concentration-dependent survival”; in test [3] (strain PAO1, FIG. 6A) it was “significant concentration-dependent survival”. The “difference vs control IgG1 (pathology scores / viable CFU), Mann-Whitney U-test P” value stood at 0.0003 in test [4] (15 mg/kg, FIG. 8C); 0.0015 in test [4] (15 mg/kg, FIG. 8D); 0.0001 in test [4] (45 mg/kg, FIG. 8A). In addition, the “corneal pathology and bacterial counts vs negative control-treated animals” value in test [4] (6077, antibody 24 hours prior to infection, FIG. 8A-D, F-G) was “significantly less pathology and reduced bacterial counts in total eye homogenates”.

These data come from patent US11203633B2, “Polynucleotides encoding antibodies or antigen binding fragments thereof that bind pseudomonas perv” (priority 2011, dated 2021).
